The text below walks through data of patent US11566022B2, “3-(5-methoxy-1-oxoisoindolin-2-yl)piperidine-2,6-dione derivatives and uses thereof” (NOVARTIS AG, priority 2019, dated 2023).

This test deals with HiBit-WIZ fusion protein (Homo sapiens, UniProt O95785+Q96SW2). The experiment in a line: Quantification of WIZ protein levels in HiBit tag fusion protein assay (WIZ HiBit assay in 293T cells). In kind it is cell-based. To be noted: for Dmax / remaining activity at up to 25 µM: HEK-293T, 293T cells; for Dmax: 100 minus Amax, read-out: % degradation of WIZ (100-Amax); for remaining activity at up to 25 µM: DMSO-normalized, curve-fitted percentage of WIZ-HiBit remaining at 25 uM, read-out: WIZ Amax; for DC50: WIZ HiBit assay in 293T cells, 10-point, 5-fold dose response, highest concentration 25 μM, about 18 hours, read-out: WIZ AC50. On the set-up: Dmax: dose or concentration left out as unconfirmed. On the technique in general: With HiBiT, luminescence reflects the tagged protein that the partner subunit can reach.
Chain of HiBit-WIZ fusion protein (O95785 whole entry, the tested form may be a part): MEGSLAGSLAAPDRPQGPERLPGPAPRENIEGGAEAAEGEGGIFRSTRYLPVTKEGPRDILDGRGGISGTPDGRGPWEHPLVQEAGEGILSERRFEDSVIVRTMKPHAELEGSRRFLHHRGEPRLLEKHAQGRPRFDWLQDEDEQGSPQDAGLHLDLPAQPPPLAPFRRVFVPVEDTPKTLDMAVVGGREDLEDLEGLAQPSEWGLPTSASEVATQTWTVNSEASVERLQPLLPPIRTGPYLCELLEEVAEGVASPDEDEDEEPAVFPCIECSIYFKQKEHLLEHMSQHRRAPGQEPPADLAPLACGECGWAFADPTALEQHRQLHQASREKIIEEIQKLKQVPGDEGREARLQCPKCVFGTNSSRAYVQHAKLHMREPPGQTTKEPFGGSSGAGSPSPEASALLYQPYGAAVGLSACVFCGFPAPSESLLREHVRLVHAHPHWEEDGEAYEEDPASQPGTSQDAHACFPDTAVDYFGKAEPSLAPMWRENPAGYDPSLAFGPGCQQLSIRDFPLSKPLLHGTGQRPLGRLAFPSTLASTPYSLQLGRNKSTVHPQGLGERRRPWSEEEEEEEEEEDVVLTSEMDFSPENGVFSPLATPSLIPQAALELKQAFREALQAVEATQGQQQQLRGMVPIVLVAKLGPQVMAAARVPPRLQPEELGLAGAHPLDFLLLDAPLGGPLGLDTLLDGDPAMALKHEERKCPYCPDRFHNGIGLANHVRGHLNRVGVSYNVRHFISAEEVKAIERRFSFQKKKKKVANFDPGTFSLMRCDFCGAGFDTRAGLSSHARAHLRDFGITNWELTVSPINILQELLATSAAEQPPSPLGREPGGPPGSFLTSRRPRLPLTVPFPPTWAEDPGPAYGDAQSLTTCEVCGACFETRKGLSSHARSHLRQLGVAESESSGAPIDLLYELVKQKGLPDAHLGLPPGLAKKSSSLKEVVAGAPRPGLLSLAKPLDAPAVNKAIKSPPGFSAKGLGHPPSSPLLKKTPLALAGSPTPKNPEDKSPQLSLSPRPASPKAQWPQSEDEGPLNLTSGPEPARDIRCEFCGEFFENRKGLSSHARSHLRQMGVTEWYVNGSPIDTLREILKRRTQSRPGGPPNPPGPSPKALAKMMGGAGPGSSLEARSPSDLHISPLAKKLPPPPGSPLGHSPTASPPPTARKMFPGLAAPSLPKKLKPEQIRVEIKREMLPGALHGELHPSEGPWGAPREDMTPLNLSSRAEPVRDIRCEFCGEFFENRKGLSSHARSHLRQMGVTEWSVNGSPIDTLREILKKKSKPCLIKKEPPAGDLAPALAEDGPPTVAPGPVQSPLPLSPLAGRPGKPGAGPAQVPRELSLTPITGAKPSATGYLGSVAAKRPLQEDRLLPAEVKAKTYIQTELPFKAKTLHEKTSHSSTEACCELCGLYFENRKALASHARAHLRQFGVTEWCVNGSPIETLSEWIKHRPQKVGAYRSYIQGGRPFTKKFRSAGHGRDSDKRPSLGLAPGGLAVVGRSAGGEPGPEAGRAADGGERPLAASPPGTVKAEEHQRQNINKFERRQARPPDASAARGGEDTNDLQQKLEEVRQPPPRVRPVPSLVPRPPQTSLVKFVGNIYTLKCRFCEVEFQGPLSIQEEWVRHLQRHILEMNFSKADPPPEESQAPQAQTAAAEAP
Chain of HiBit-WIZ fusion protein (Q96SW2 whole entry, the tested form may be a part): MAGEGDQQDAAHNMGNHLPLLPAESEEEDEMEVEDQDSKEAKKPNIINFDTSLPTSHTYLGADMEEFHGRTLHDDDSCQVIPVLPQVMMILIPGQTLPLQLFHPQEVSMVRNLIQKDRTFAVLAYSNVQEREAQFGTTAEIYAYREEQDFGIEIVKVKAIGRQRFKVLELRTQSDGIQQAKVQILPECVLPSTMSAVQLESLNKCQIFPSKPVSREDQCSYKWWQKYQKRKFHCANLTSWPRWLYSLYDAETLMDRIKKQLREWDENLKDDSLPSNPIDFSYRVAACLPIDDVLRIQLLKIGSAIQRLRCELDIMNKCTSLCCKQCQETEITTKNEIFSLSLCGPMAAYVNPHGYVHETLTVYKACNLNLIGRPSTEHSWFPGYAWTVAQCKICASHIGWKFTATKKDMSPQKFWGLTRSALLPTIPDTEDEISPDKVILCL
Chain of HiBit-WIZ fusion protein (Q16531 whole entry partner, the tested form may be a part): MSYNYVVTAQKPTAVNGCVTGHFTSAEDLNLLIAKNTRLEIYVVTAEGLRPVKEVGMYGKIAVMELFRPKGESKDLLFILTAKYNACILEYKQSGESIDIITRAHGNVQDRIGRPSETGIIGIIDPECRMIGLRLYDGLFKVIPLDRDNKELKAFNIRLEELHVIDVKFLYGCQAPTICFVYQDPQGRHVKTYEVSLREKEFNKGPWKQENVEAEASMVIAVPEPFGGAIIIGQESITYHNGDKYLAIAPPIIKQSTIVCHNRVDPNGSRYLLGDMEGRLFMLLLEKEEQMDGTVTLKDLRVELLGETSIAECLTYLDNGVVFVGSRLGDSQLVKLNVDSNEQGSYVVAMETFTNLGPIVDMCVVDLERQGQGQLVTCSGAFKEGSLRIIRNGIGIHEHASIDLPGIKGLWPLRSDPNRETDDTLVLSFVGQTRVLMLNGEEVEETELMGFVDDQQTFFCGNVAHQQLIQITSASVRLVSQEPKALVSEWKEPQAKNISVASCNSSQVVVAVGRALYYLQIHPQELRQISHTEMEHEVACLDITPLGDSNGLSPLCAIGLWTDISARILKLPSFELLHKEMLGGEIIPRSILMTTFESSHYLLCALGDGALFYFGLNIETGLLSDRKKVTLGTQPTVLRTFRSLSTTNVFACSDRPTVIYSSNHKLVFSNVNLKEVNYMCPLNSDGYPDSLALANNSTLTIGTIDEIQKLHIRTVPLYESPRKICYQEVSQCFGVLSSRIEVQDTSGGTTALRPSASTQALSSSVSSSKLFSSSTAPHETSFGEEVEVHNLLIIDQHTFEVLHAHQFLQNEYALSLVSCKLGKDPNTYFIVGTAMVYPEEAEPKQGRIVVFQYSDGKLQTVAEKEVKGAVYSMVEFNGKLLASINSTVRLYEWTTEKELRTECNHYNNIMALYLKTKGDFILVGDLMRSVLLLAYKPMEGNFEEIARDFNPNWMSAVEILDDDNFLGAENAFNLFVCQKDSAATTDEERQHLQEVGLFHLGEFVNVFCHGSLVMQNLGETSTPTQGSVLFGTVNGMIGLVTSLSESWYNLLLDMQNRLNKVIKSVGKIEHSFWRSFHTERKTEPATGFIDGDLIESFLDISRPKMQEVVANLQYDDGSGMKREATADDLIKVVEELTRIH

For the molecule `Cn1c(CN2CCCC[C@H]2COc2ccc3c(c2)CN(C2CCC(=O)NC2=O)C3=O)nc2ccccc21` (stereo partly drawn) [Compound I-50ap], the Dmax was 30.1%, the remaining activity at up to 25 µM worked out at 69.9% and the DC50 is greater than 25000 nM.
The corresponding values for `CC(C)(C)OC(=O)NC1(CN2CCCC[C@H]2COc2ccc3c(c2)CN(C2CCC(=O)NC2=O)C3=O)CCCC1` (stereo partly drawn) [Compound I-50aq] are 15.4%, 84.6% and greater than 25000 nM.
The corresponding values for `CN(C)c1ncc(CN2CCCC[C@@H]2COc2ccc3c(c2)CN(C2CCC(=O)NC2=O)C3=O)cn1` (stereo partly drawn) [Compound I-50ar] are 78.2%, 21.8% and 1140 nM.
Turning to `CCN(CC)c1ccc(CN2CCCC[C@H]2COc2ccc3c(c2)CN(C2CCC(=O)NC2=O)C3=O)cn1` (stereo partly drawn) [Compound I-50as], the Dmax is 84.3%, the remaining activity at up to 25 µM amounted to 15.7% and the DC50 stood at 327 nM.
In the case of `Cc1nnsc1CN1CCCC[C@H]1COc1ccc2c(c1)CN(C1CCC(=O)NC1=O)C2=O` (stereo partly drawn) [Compound I-50at], the Dmax stood at 9.8%, the remaining activity at up to 25 µM is 90.2% and the DC50 is greater than 25000 nM.
For `CCOC(=O)c1cccc2[nH]nc(CN3CCCC[C@H]3COc3ccc4c(c3)CN(C3CCC(=O)NC3=O)C4=O)c12` (stereo partly drawn) [Compound I-50au] the same measures were 24.2%, 75.8% and greater than 25000 nM.
In the case of `N#Cc1cccc(Cn2cccc(CN3CCCC[C@H]3COc3ccc4c(c3)CN(C3CCC(=O)NC3=O)C4=O)c2=O)c1` (stereo partly drawn) [Compound I-50aw], the Dmax is 24.5%, the remaining activity at up to 25 µM amounted to 75.5% and the DC50 was greater than 25000 nM.
Regarding `O=C1CCC(N2Cc3cc(OC[C@H]4CCCCN4Cc4nccn4Cc4ccccc4)ccc3C2=O)C(=O)N1` (stereo partly drawn) [Compound I-50ax], the Dmax came out at 92.5%, the remaining activity at up to 25 µM was 7.5% and the DC50 came out at 149 nM.
For `COC(=O)c1nn(-c2cccc(C(F)(F)F)c2)cc1CN1CCCC[C@H]1COc1ccc2c(c1)CN(C1CCC(=O)NC1=O)C2=O` (stereo partly drawn) [Compound I-50ay] the same measures were 25.7%, 74.3% and greater than 25000 nM.
For the molecule `O=C1CCC(N2Cc3cc(OC[C@@H]4CCCCN4Cc4ccc(O)c(Cl)c4)ccc3C2=O)C(=O)N1` (stereo partly drawn) [Compound I-50b], the Dmax stood at 83%, the remaining activity at up to 25 µM was 17% and the DC50 worked out at 1480 nM.
In the case of `Cc1nc(-c2cccc(CN3CCCC[C@H]3COc3ccc4c(c3)CN(C3CCC(=O)NC3=O)C4=O)c2)no1` (stereo partly drawn) [Compound I-50bb], the Dmax was found to be 56.8%, the remaining activity at up to 25 µM amounted to 43.2% and the DC50 was 18300 nM.
Turning to `Cn1nc(CN2CCCC[C@H]2COc2ccc3c(c2)CN(C2CCC(=O)NC2=O)C3=O)cc1-c1ccccc1` (stereo partly drawn) [Compound I-50bc], the Dmax came to 93.4%, the remaining activity at up to 25 µM turned out to be 6.6% and the DC50 is 58 nM.
For the molecule `NS(=O)(=O)c1cc(CN2CCCC[C@H]2COc2ccc3c(c2)CN(C2CCC(=O)NC2=O)C3=O)ccc1Cl` (stereo partly drawn) [Compound I-50bd], the Dmax stood at 41.1%, the remaining activity at up to 25 µM amounted to 58.9% and the DC50 was greater than 25000 nM.
Regarding `Nc1ncc(CN2CCCC[C@H]2COc2ccc3c(c2)CN(C2CCC(=O)NC2=O)C3=O)cn1` (stereo partly drawn) [Compound I-50be], the Dmax was 41.9%, the remaining activity at up to 25 µM was determined as 58.1% and the DC50 is greater than 25000 nM.
For `COc1ccc(CN2CCCC[C@H]2COc2ccc3c(c2)CN(C2CCC(=O)NC2=O)C3=O)cn1` (stereo partly drawn) [Compound I-50bf] the same measures were 50.9%, 49.1% and greater than 25000 nM.
For `O=C1CCC(N2Cc3cc(OC[C@H]4CCCCN4CC4CCN(Cc5ccccc5)CC4)ccc3C2=O)C(=O)N1` (stereo partly drawn) [Compound I-50bg] the same measures were 98%, 2% and 31 nM.
